Experiments:
Format in all cases: in vivo
[1] = tested on: barnyardgrass (Echinochloa crus-galli); assay: Test B flooded paddy test, plant response rating; details: 250 g ai/ha; Flood; scale of 0 to 100 where 0 is no effect and 100 is complete control; 13 to 15 days
In short: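 Pots were flooded to 3 cm above the soil surface at treatment, compound applied directly to the paddy water, and that depth held throughout. Plants were kept in a greenhouse for 13 to 15 days, then visually rated against untreated controls.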

[2] = tested on: blackgrass (Alopecurus myosuroides); assay: Test C postemergence, plant response rating; details: for Plant response rating, Blackgrass: scale 0 to 100; for Blackgrass plant response rating: scale 0 to 100 (0 no effect, 100 complete control)
In short: (§1)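 Visual injury score, 0 = no effect, 100 = complete control, assigned against untreated controls after 13 to 15 d in the greenhouse. Compounds were applied in a surfactant-containing non-phytotoxic solvent mix, preemergence to seeded loam/sand or silt loam soil, or postemergence to 1- to 4-leaf plants (2 to 18 cm).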

kochia (Kochia scoparia) [3] = assay: Test C postemergence, plant response rating; details: for Kochia plant response rating: scale 0 to 100 (0 no effect, 100 complete control)
In short: as §1

[4] = tested on: wheat (winter wheat, Triticum aestivum); assay: Test C postemergence, plant response rating; details: for Wheat plant response rating: scale 0 to 100 (0 no effect, 100 complete control)
In short: as §1

[5] = tested on: oilseed rape (Brassica napus); assay: Test C postemergence, plant response rating; details: for Oilseed Rape plant response rating: scale 0 to 100 (0 no effect, 100 complete control)
In short: as §1

[6] = tested on: nutsedge, yellow (yellow nutsedge, Cyperus esculentus); assay: Test C postemergence, plant response rating; details: for Nutsedge, Yellow plant response rating: scale 0 to 100 (0 no effect, 100 complete control)
In short: as §1

[7] = tested on: galium (catchweed bedstraw, Galium aparine); assay: Test C postemergence, plant response rating; details: for Galium plant response rating: scale 0 to 100 (0 no effect, 100 complete control)
In short: as §1

[8] = tested on: crabgrass, large (large crabgrass, Digitaria sanguinalis); assay: Test C postemergence, plant response rating; details: for Crabgrass, Large plant response rating: scale 0 to 100 (0 no effect, 100 complete control)
In short: as §1

[9] = tested on: morningglory (Ipomoea coccinea); assay: Test C postemergence, plant response rating; details: for Morningglory plant response rating: scale 0 to 100 (0 no effect, 100 complete control)
In short: as §1

corn (Zea mays) = assay: Test C postemergence, plant response rating; details: for Corn plant response rating: scale 0 to 100 (0 no effect, 100 complete control)
In short: as §1

[10] = tested on: barnyardgrass (Echinochloa crus-galli); assay: Test C postemergence, plant response rating; details: for Plant response rating, Barnyardgrass: scale 0 to 100; for Barnyardgrass plant response rating: scale 0 to 100 (0 no effect, 100 complete control)
In short: as §1

[11] = tested on: giant foxtail (Setaria faberii); assay: Test A preemergence, visual injury rating
In short: (§2)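 Visual injury scored 0–100 (100 = complete control) against untreated controls about 10 days after treatment in a greenhouse. Test chemicals, formulated with surfactant in non-phytotoxic solvent, were sprayed on soil preemergence or on 2-10 cm, one- to two-leaf plants postemergence.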

kochia (Kochia scoparia) [12] = assay: Test A preemergence, visual injury rating
In short: as §2

[13] = tested on: pigweed (Amaranthus retroflexus); assay: Test A preemergence, visual injury rating
In short: as §2

[14] = tested on: Italian ryegrass (Lolium multiflorum); assay: Test A preemergence, visual injury rating
In short: as §2

[15] = tested on: ragweed (common ragweed, Ambrosia elatior); assay: Test A preemergence, visual injury rating
In short: as §2

[16] = tested on: barnyardgrass (Echinochloa crus-galli); assay: Test A preemergence, visual injury rating
In short: as §2

[17] = 31 g ai/ha, 0 to 100 scale, 0 no effect, 100 complete control
[18] = 125 g ai/ha, 0 to 100 scale (0 no effect, 100 complete control)

## O=C(CCCC(F)(F)F)c1c(Br)cccc1Oc1ncc(Cl)cn1 [Compound 77]
[1]
  Plant response rating, Barnyardgrass: 15
[2]; 16 g ai/ha
  Plant response rating, Blackgrass: 5
[2]; 31 g ai/ha
  Plant response rating, Blackgrass: 20
[2]; 62 g ai/ha
  Blackgrass plant response rating: 20
[2]; 125 g ai/ha
  Blackgrass plant response rating: 25
Kochia (Kochia scoparia) [3]; 16 g ai/ha, scale of 0 to 100
  Plant response rating, Kochia: 95
Kochia (Kochia scoparia) [3]; 31 g ai/ha, scale 0 to 100
  Plant response rating, Kochia: 100
Kochia (Kochia scoparia) [3]; 62 g ai/ha
  Kochia plant response rating: 100
Kochia (Kochia scoparia) [3]; 125 g ai/ha
  Kochia plant response rating: 100
[4]; 16 g ai/ha, scale of 0 to 100
  Plant response rating, Wheat: 0
[4]; 31 g ai/ha, scale 0 to 100
  Plant response rating, Wheat: 0
[4]; 62 g ai/ha
  Wheat plant response rating: 10
[4]; 125 g ai/ha
  Wheat plant response rating: 30
[5]; 16 g ai/ha, scale of 0 to 100
  Plant response rating, Oilseed Rape: 10
[5]; 31 g ai/ha, scale 0 to 100
  Plant response rating, Oilseed Rape: 70
[5]; 62 g ai/ha
  Oilseed Rape plant response rating: 70
[5]; 125 g ai/ha
  Oilseed Rape plant response rating: 85
[6]; 16 g ai/ha, scale of 0 to 100
  Plant response rating, Nutsedge, Yellow: 5
[6]; 31 g ai/ha, scale 0 to 100
  Plant response rating, Nutsedge, Yellow: 10
[6]; 62 g ai/ha
  Nutsedge, Yellow plant response rating: 15
[6]; 125 g ai/ha
  Nutsedge, Yellow plant response rating: 15
[7]; 16 g ai/ha, scale of 0 to 100
  Plant response rating, Galium: 75
[7]; 31 g ai/ha, scale 0 to 100
  Plant response rating, Galium: 98
[7]; 62 g ai/ha
  Galium plant response rating: 95
[7]; 125 g ai/ha
  Galium plant response rating: 98
[8]; 16 g ai/ha, scale of 0 to 100
  Plant response rating, Crabgrass, Large: 10
[8]; 31 g ai/ha, scale 0 to 100
  Plant response rating, Crabgrass, Large: 25
[8]; 62 g ai/ha
  Crabgrass, Large plant response rating: 30
[8]; 125 g ai/ha
  Crabgrass, Large plant response rating: 30
[9]; 16 g ai/ha, scale of 0 to 100
  Plant response rating, Morningglory: 50
[9]; 31 g ai/ha, scale 0 to 100
  Plant response rating, Morningglory: 85
[9]; 62 g ai/ha
  Morningglory plant response rating: 90
[9]; 125 g ai/ha
  Morningglory plant response rating: 80
Corn (Zea mays); 16 g ai/ha, scale of 0 to 100
  Plant response rating, Corn: 15
Corn (Zea mays); 31 g ai/ha, scale 0 to 100
  Plant response rating, Corn: 15
Corn (Zea mays); 62 g ai/ha
  Corn plant response rating: 20
Corn (Zea mays); 125 g ai/ha
  Corn plant response rating: 25
[10]; 16 g ai/ha
  Plant response rating, Barnyardgrass: 15
[10]; 31 g ai/ha
  Plant response rating, Barnyardgrass: 25
[10]; 62 g ai/ha
  Barnyardgrass plant response rating: 25
[10]; 125 g ai/ha
  Barnyardgrass plant response rating: 30
[11]; [17]
  Plant response rating, Foxtail, Giant: 100
[11]; [18]
  Foxtail, Giant plant response rating: 100
Kochia (Kochia scoparia) [12]; [17]
  Plant response rating, Kochia: 80
Kochia (Kochia scoparia) [12]; [18]
  Kochia plant response rating: 100
[13]; [17]
  Plant response rating, Pigweed: 100
[13]; [18]
  Pigweed plant response rating: 100
[14]; [17]
  Plant response rating, Ryegrass, Italian: 0
[14]; [18]
  Ryegrass, Italian plant response rating: 70
[15]; [17]
  Plant response rating, Ragweed: 0
[15]; [18]
  Ragweed plant response rating: 0
[16]; [17]
  Plant response rating, Barnyardgrass: 20
[16]; [18]
  Barnyardgrass plant response rating: 100
